The subject of assay [1] is Bacterial strains identified in Example 5. Nature of the assay: Antibiotic sensitivity by diffusion disk test of strains cultured from each subject. In kind it is cell-based. Here is the method: (§1) The disclosure is based, in part, on the recognition that certain L-form bacteria are sensitive to (e.g., not resistant to treatment with) specific antibiotic agents. In some embodiments, resistance to antibiotic agents is tested by a diffusion tab (diffusion disk) test, for example as described in Reller et al. (2009) Clinical Infectious Diseases, 49(11): 1749-1755. However, the skilled artisan recognizes that additional methods of antibiotic sensitivity testing may also be used.
(§2) Bacterial strains identified in Example 5 were tested for antibiotic sensitivity by a diffusion disk test. […] Resistance to Oxacillin was also observed in the M. maritypicum samples.

The test system of the next assay is M. maritypicum. Nature of the assay: Antibiotic sensitivity by diffusion disk test, M. maritypicum. In kind it is cell-based, Microbacterium maritypicum. The procedure: as §1, §2
Where [2] appears, read: strains cultured from subject 1905.
[3] abbreviates: strains cultured from subject 3016.
Setting [4] is: strains cultured from subject 1609.
Setting [5] is: strains cultured from subject 1642.
Setting [6] is: strains cultured from subject 1644.
The mark [7] stands for this setting: strains cultured from subject 1538.
The mark [8] stands for this setting: strains cultured from subject 1545.
[9] abbreviates: strains cultured from subject 1619.
Setting [10] is: strains cultured from subject 1636.
The mark [11] stands for this setting: strains cultured from subject 1842.
Where [12] appears, read: strains cultured from subject 1985.
The mark [13] stands for this setting: strains cultured from subject 3164.
Where [14] appears, read: strains cultured from subject 3025.

We go through eight compounds from patent publication US20200237786A1, “DIAGNOSIS AND TREATMENT OF ENDOMETRIOSIS BY SCREENING FOR L-FORM BACTERIA” (Soft Cell Biological Research, LLC, priority 2017, published 2020).

Consider Penicillin, for which, in assay [1] (setting [2]), the “Most Effective Oral Antibiotic” value was “Penicillin”. Besides, in assay [1] (setting [3]), the “Resistance?” value is given as “Penicillin”.
For the compound `CO/N=C(\C(=O)N[C@@H]1C(=O)N2C(C(=O)O)=C(COC(N)=O)CS[C@H]12)c1ccco1` [Cefuroxime], the “Resistance?” value in assay [1] (setting [4]), in assay [1] (setting [5]) and in assay [1] (setting [3]) was “Cefuroxime” in each case. Besides, in assay [1] (setting [6]), the “Most Effective Oral Antibiotic” value was “Cefuroxime”.
`Cc1ncc([N+](=O)[O-])n1CCO` [Metronidazole]: the “Resistance?” value in assay [1] (setting [7]) is given as “Metronidazole”; in assay [1] (setting [8]), “Metronidazile,”; in assay [1] (setting [4]), “Metronidazole,”; in assay [1] (setting [9]), “Metronidazole,”; in assay [1] (setting [10]) it was “Metronidazole,”; in assay [1] (setting [5]) it was “Metronidazole,”. Moreover, the “Resistance?” value is “Metronidazole,” in assay [1] (setting [6]); “Metronidazole,” in assay [1] (strains cultured from subject 1661); “Metronidazole,” in assay [1] (setting [11]); “Metronidazole” in assay [1] (setting [12]); “Metronidazole,” in assay [1] (setting [3]); “Metronidazole” in assay [1] (setting [13]). Besides, the “resistance observed for M. maritypicum” value with M. maritypicum (in the majority of samples) is listed as “resistance”.
Turning to Sulfa-Trimeth, the “Resistance?” value in assay [1] (setting [8]) is “Sulfa-”; in assay [1] (setting [5]) it was “Sulfa-Trimeth,”; in assay [1] (setting [3]), “Sulfa-Trimeth,”.
In the case of Amoxiclav, the “Most Effective Oral Antibiotic” value is reported as “Amoxiclav” in assay [1] (setting [7]); “Amoxiclav” in assay [1] (strains cultured from subject 1888); “Amoxiclav,” in assay [1] (setting [2]); “Amoxiclav” in assay [1] (setting [3]); “Amoxiclav” in assay [1] (setting [14]). Besides, in assay [1] (setting [5]), the “Resistance?” value is listed as “Amoxiclav”.
Take `C[C@@H](O)[C@H]1C(=O)N2C(C(=O)O)=C(S[C@@H]3CN[C@H](C(=O)N(C)C)C3)[C@H](C)[C@H]12` [Meropenem]: the “Most Effective IV Antibiotic” value in assay [1] (setting [7]), in assay [1] (setting [4]), in assay [1] (setting [9]), in assay [1] (setting [10]), in assay [1] (setting [11]) and in assay [1] (setting [14]) was “Meropenem” throughout. Further, the “Most Effective IV Antibiotic” value in assay [1] (strains cultured from subject 3104) and in assay [1] (setting [13]) was “Meropenem” in each case.
As for Rifapin, the “Most Effective Oral Antibiotic” value in assay [1] (setting [12]) is on record as “Rifapin”.
Take `Cc1onc(-c2ccccc2)c1C(=O)N[C@@H]1C(=O)N2[C@@H]1SC(C)(C)[C@@H]2C(=O)O` [Oxacillin]: the “Resistance?” value in assay [1] (setting [8]) was “Oxacillin”; in assay [1] (setting [4]), “Oxaillin”; in assay [1] (setting [9]) it was “Oxacillin”; in assay [1] (setting [10]), “Oxacillin”; in assay [1] (setting [5]), “Oxacillin”; in assay [1] (setting [6]), “Oxacillin”. Moreover, the “Resistance?” value is reported as “Oxacillin” in assay [1] (setting [11]), “Oxacilin” in assay [1] (setting [3]) and “Oxacillin” in assay [1] (setting [14]). In addition, the “resistance observed in the M. maritypicum samples” value in the assay on M. maritypicum (M. maritypicum samples) was “Resistance”.
